Where only a bound is given, the exact number is not on record here.

For one assay, the system named is A2780S. As to the kind of experiment: Cytotoxicity against human A2780S cells. Type of assay: functional, cell-based.
The next assay relates to A2780cisR. Description: Cytotoxicity against human A2780cisR cells. Type of assay: functional, cell-based.
In the next assay the test system is A549. As to the kind of experiment: Antitumor activity against human A549 cells xenografted in NU/J nude mouse assessed as inhibition of tumor volume at 10 mg/kg, ip administered daily for 10 weeks measured every 7 days during compound dosing relative to control. Type of assay: functional.
Assay [1] is described as follows: Inhibition of human LDH5.

Consider `CC(=O)N[C@H](C(=O)N[C@H]1C(O)O[C@H](CO)[C@@H](O)[C@@H]1O)C(C)(C)SN=O` (some centres undefined), for which the IC50 in the assay with A2780S turned out to be 4.2 nM; with A2780cisR it was 380 nM.

Take `O=C(Oc1cccc(F)c1OC(=O)c1cccc(O)c1)c1cccc(O)c1`: the inhibition in vivo at 10 mg/kg in the assay on A549 was over 70%.

As for `COC(=O)c1cc2c(C(F)(F)F)cc(-c3ccccc3)cc2n1O`, the Ki in assay [1] came to 5100 nM.

(Values after ChEMBL document CHEMBL3992488, “Anticancer agents interacting with membrane glucose transporters” (Medchemcomm, 2016).)
